Measured values from patent US8410178B2, “CIS 3,4-dihydroxy-2-(3-methylbutanoyl)-5-(3-methylbutyl)-4-(4-methylpentanoyl)cyclopent-2-en-1-derivatives, substantially enantiomerically pure compositions and methods” (KinDex Therapeutics, LLC, priority 2010, dated 2013).
pIC50, pKi: −log10 of the molar value.

Assays:
[1] = molecular target: T1, peroxisome proliferator-activated receptor gamma (PPARγ) (Homo sapiens, UniProt P37231); assay: Competitive binding to PPARγ ([3H]rosiglitazone)
T1 sequence (P37231 1-505): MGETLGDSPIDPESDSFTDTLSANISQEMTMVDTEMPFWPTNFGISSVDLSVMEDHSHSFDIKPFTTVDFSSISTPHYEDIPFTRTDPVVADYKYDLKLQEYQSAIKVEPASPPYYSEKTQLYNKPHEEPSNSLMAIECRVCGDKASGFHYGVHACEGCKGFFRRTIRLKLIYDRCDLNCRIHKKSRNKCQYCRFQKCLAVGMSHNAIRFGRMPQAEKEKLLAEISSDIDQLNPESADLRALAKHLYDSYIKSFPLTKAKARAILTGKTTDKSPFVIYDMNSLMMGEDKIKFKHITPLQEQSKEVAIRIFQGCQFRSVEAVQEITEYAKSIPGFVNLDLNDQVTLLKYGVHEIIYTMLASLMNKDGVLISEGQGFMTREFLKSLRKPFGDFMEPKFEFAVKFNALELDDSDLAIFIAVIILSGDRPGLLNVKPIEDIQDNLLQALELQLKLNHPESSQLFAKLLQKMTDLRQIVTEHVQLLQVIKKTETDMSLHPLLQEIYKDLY

[2] = molecular target: T2, angiotensin II receptor type II (AGTR2) (Homo sapiens, UniProt P50052); assay: Competitive binding to AGTR2 ([125I]CGP 42112A); conditions: binding target AGTR2; competitor ligand Angiotensin-II
T2 sequence (P50052 1-363): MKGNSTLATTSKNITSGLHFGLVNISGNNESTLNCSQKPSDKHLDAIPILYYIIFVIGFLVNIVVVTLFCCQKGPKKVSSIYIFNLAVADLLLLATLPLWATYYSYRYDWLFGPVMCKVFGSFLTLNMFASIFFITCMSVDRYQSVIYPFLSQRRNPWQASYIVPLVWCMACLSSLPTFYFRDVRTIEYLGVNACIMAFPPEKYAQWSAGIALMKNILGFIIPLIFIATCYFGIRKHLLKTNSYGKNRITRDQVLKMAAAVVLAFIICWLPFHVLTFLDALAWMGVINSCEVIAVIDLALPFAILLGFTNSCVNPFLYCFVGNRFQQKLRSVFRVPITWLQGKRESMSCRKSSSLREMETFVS

[3] = molecular target: T3, PPARγ (Homo sapiens, UniProt P37231); assay: PPARγ luciferase reporter assay; assay type: cell-based
T3 sequence (P37231 1-505): T1 sequence (P37231 1-505)
Procedure: (§1) The functional effect of (+)-KDT501 on PPARα, PPARδ, and PPARγ activity was evaluated using a PPAR reporter assay (INDIGO Biosciences, PA). This assay utilizes non-human mammalian cells engineered to provide constitutive high level expression of PPARα, PPARδ, or PPARγ and containing a luciferase report gene specific to the appropriate PPAR. Following activation by agonist binding, PPAR induces expression of the luciferase reporter gene. Luciferase activity therefore provides a surrogate for measuring PPAR activity in agonist-treated cells.
(§2) Reporter cells were plated on a 96-well plate at 100 μL per well, and 100 μL of (+)-KDT501 at various final concentrations (25, 12.5, 6.25, 3.125, 1.56 and 0.78 μM) was added to each well. […] 0.1% DMSO was also used as a negative control for each assay. Plates are incubated for 20 hours in a humidified incubator at 37° C. and 5% CO2. After incubation, cell medium was discarded and the cells were treated with 100 μL of luciferase detection reagent for 15 minutes. Plates were analyzed using a luminometer (Victor2, Perkin Elmer). Average relative light unit (RLU) and standard deviation were analyzed using GraphPad Prism.
The PPAR activity assays were repeated as described above using both (+)-KDT501(12.5, 6.25, 3.125, 1.56, and 0.78 μM) and (−)-KDT501 (25, 12.5, 6.25, 3.125, 1.56, and 0.78 μM).

[4] = molecular target: T4, PPARα (Homo sapiens, UniProt Q07869); assay: PPARα luciferase reporter assay; assay type: cell-based; conditions: reporter cells, 20 hours
T4 sequence (Q07869 1-468): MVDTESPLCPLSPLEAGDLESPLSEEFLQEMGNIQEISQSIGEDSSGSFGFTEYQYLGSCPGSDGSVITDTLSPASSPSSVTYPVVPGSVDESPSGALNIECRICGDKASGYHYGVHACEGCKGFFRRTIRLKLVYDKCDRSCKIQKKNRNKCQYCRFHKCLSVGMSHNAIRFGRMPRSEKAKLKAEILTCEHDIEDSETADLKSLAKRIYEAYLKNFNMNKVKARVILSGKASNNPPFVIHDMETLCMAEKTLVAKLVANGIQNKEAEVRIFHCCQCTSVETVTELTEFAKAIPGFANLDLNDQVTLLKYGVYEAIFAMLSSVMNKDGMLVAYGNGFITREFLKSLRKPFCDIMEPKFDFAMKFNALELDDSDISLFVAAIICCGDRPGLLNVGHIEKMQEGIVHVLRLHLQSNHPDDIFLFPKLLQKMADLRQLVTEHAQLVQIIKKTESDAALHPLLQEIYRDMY
Procedure: as §1, §2

[5] = molecular target: T5, PPARδ (Homo sapiens, UniProt Q03181); assay: PPARδ luciferase reporter assay; assay type: cell-based; conditions: reporter cells, 20 hours
T5 sequence (Q03181 1-441): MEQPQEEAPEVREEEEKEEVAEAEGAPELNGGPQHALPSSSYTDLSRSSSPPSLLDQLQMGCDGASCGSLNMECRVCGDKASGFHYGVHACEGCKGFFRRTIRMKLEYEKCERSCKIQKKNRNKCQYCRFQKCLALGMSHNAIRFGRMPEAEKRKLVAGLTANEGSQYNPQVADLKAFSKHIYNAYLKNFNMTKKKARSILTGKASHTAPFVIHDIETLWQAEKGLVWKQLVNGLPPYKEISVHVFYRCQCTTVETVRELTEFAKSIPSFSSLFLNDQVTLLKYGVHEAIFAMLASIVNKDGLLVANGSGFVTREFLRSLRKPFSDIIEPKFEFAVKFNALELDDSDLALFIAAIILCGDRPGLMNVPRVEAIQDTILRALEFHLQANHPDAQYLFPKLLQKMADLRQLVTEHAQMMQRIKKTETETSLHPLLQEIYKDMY
Procedure: as §1, §2

[6] = molecular target: Human DAPK1 (Homo sapiens, UniProt P53355); assay: DAPK1 activity, cell free kinase assay; assay type: biochemical; conditions: cell free assay
Sequence of Human DAPK1 (P53355 whole entry): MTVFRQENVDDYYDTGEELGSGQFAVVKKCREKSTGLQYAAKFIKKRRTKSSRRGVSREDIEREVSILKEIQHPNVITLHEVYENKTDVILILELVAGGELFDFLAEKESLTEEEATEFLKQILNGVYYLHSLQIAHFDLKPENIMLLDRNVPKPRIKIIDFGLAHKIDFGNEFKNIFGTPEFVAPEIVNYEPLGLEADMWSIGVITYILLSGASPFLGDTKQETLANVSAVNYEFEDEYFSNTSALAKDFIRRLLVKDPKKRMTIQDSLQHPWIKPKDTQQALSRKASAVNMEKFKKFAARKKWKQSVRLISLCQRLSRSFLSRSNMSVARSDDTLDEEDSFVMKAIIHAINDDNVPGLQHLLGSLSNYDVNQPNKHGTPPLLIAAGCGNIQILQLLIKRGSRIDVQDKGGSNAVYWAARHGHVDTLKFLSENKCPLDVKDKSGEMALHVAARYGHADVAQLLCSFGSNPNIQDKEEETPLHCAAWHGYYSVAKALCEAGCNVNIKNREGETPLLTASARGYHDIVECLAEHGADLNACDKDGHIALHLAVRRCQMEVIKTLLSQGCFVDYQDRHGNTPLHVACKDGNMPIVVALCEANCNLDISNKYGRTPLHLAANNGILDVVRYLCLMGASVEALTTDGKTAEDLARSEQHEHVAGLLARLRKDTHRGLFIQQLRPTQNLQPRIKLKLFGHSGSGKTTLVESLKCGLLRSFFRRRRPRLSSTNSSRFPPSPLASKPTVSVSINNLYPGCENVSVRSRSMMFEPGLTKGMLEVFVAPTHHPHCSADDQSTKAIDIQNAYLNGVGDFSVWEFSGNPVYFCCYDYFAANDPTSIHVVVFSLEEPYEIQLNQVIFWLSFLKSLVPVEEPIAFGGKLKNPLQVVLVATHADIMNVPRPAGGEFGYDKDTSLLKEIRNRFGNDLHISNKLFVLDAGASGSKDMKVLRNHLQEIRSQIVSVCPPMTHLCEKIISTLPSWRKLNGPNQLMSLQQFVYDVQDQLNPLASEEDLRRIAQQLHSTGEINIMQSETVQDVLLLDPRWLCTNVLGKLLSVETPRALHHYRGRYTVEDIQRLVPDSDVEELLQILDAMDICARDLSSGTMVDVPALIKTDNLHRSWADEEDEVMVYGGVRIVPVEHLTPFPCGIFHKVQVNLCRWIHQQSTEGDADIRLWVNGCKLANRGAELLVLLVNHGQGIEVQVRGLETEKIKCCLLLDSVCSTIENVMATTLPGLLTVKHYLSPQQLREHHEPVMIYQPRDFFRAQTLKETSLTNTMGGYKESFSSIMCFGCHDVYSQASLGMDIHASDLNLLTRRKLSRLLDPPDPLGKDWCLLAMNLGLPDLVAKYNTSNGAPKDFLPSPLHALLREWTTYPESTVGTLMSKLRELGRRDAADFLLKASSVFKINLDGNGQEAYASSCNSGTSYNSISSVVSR
Procedure: The effect of (+)-KDT501 and (−)-KDT501 on death-associated protein kinase 1 (DAPK1) activity was evaluated.
Human DAPK1 was incubated with 8 mM MOPS, pH 7.0, 0.2 mM EDTA, 250 μM ZIP peptide substrate ([…]), 10 mM MgOAc, and [γ-^33P-ATP] (specific activity approximately 500 cpm/pmol, concentration as required). (+)-KDT501 or (−)-KDT501 at varying concentrations (100, 30, 10, 1, 0.3, 0.1, 0.03, 0.01 μM) were added to the reaction mixture. The reaction was initiated by addition of the MgATP mix. After incubation for 40 minutes at room temperature, the reaction was stopped by addition of 3% phosphoric acid solution. 10 μL of reaction mixture was spotted onto a P30 filtermat, washed three times for five minutes in 75 mM phosphoric acid and once in methanol prior, then dried and subjected to scintillation counting.

pIC50 [1]: 4.52
pKi [1]: 4.80
nH ([1]; binding target PPARγ, competitor ligand Rosiglitazone): 1.1
pIC50 [2]: 4.49
pKi [2]: 4.80
nH [2]: 0.9
PPARγ reporter activity (RLU) ([3]; concentration of test compound 3.13 μM): 547 RLU
PPARγ reporter activity (RLU) ([3]; concentration of test compound 6.25 μM): 972 RLU
PPARγ reporter activity (RLU) ([3]; concentration of test compound 12.5 μM): 2407 RLU
PPARγ reporter activity (RLU) ([3]; concentration of test compound 25 μM): 4244 RLU
PPARα activity [4]: little or no effect
PPARδ activity [5]: little or no effect
pIC50 [6]: 4.39
SMILES: CC(C)CCC(=O)[C@]1(O)C(O)=C(C(=O)CC(C)C)C(=O)[C@H]1CCC(C)C [(−)-KDT501]
PPARγ activity ([3]; reporter cells, 20 hours): increased PPARγ activity, but to a significantly lesser degree than (+)-KDT501
